Counter-ions that a name gives are not always drawn.
test system: apomorphine climbing; assay: Neuroleptic activity in the climbing mice assay (apomorphine-induced climbing); assay type: in vivo, mice (CK-1 male); settings: Mus musculus, ip, intraperitoneal 30 min before apomorphine 1.5 mg/kg s.c., climbing scored at 10, 20 and 30 min, linear regression, read-out: NEUROLEPTIC ACTIVITY (ED50 mg/kg)
Experimental: The subject CK-1 male mice (23-27 grams) are group-housed under standard laboratory conditions. The mice are individually placed in wire mesh stick cages (4"×4" by 10") and are allowed one hour for adaptation and exploration of the new environment.
For evaluation of climbing, 3 readings are taken at 10, 20 and 30 minutes after apomorphine administration according to the following scale: […]
Mice consistently climbing before the injection of apormorphine will be discarded.
With full-developed apomorphine climbing, the animals are hanging onto the cage walls, rather motionless, over longer periods of time. By contrast, climbs due to mere motor stimulation usually only last a few seconds.
The climbing scores are individually totaled (maximal score: 6 per mouse over 3 readings) and the total score of the control group (vehicle intraperitoneally--apomorphine subcutaneously) is set to 100%.

In order of rising ED50:
1. Cc1[nH]c2ccccc2c1CCCN1CCC(c2noc3cc(F)ccc23)CC1 [3-{3-[4-(6-Fluoro-1,2-benzisoxazol-3-yl)piperidyl]propyl}-2-methylindole]  0.16 mg/kg
2. Cl.O=C(CCCN1CCC(c2noc3cc(Cl)ccc23)CC1)c1ccc(F)cc1 [3-[1-(4-Fluorobenzoylpropyl)-4-piperidyl]-6-chloro-1,2-benzisoxazole hydrochloride]  0.27 mg/kg
3. O=c1[nH]c2ccccc2n1CCCN1CCC(c2noc3ccccc23)CC1 [3-{1,3-dihydro-2-oxo-2H-benzmidazol-1-ylpropyl]-4-piperidyl}-1,2-benzisoxazole]  0.36 mg/kg
4. Fc1ccc(C(CCCN2CCC(c3noc4cc(F)ccc34)CC2)c2ccc(F)cc2)cc1 [6-Fluoro-3-{1-[4,4-bis(4-fluorophenyl)-1-butyl]-4-piperidyl]-1,2-benzisoxable hydrobromide]  0.58 mg/kg
5. Fc1ccc(C(CCCN2CCC(c3noc4ccc(F)cc34)CC2)c2ccc(F)cc2)cc1 [3-{1-[4,4-bis-Fluorophenyl)-1-butyl]-4-piperidyl}-5-fluoro-1,2-benzisoxazole hydrochloride]  1.6 mg/kg
6. Fc1ccc2c(CCCN3CCC(c4noc5ccc(F)cc45)CC3)noc2c1 [3-[1-(6-Fluoro-1,2-benzisoxazol-3-propyl)-4-piperidyl]-5-fluoro-1,2-benzisoxazole hydrochloride]  3.4 mg/kg
7. Cl.Fc1ccc(C(CCCN2CCC(c3noc4cc(Cl)ccc34)CC2)c2ccc(F)cc2)cc1 [6-Chloro-3{1-[4,4-bis(4-fluorophenyl)-1-butyl]-4-piperidyl}-1,2-benzisoxazole hydrochloride]  6.4 mg/kg
8. COc1ccc2onc(C3CCN(CCCc4noc5cc(F)ccc45)CC3)c2c1 [3-[1-(6-Fluoro-1,2-benzisoxazole-3-propyl)-4-piperidyl]-5-methoxy-1,2-benzisoxazole hydrobromide]  7.23 mg/kg
9. Br.O=c1[nH]c2ccccc2n1CCN1CCC(c2noc3ccccc23)CC1 [3-{1-[1,3-Dihydro-2-oxo-2H-benzimidazol-1-ylethyl]-4-piperidyl}1,2-benzisoxazole hydrobromide]  7.7 mg/kg
10. CCN1CCCC1CNC(=O)c1cc(S(N)(=O)=O)ccc1OC (centres unmarked) [sulpiride, reference compound]  14.5 mg/kg

same assay, conditions: Mus musculus, ip, intraperitoneal 30 min before apomorphine 1.5 mg/kg s.c., climbing scored at 10, 20 and 30 min, linear regression, read-out: N[…] (ED50 mg/kg)

For `O=C(CCCN1CCC(O)(c2ccc(Cl)cc2)CC1)c1ccc(F)cc1` [haloperidol, reference compound], the ED50 was 0.11 mg/kg.

Reference: patent publication US4352811A, “3-(1-Substituted-4-piperidyl)-1,2-benzisoxazoles” (Hoechst-Roussel Pharmaceuticals Inc., priority 1981, dated 1982)
